Assays:
[1] = system: hypertension-suffering eye; experiment: in vivo oxidative stress imaging of mouse eyes; conditions: L-012 10 μL, 15 mg/mL topically on eyes
Protocol: Referring now to FIG. 5, subsequent studies were carried out to evaluate the feasibility of L-012 for in vivo oxidative stress imaging. L-012 (10 μL, 15 mg/mL) was topically dropped on a mouse's eyes with hypertension-suffering left eye 510 or control right eye 520. The animal was sedated and then imaged with a Kodak in vivo FX imaging system, resulting in image 500. A strong bioluminescence signal was found in the hypertension-suffering left eye 510, while control right eye 520 emitted low or no chemiluminescence.

mouse peritoneal PMNs = experiment: ROS chemiluminescence of PMA-activated PMNs, L-012 vs. luminol; format: cell-based; conditions: 1×10^6 PMNs, 2 mM probe; for chemiluminescence emission with PMA activation: PMA (6.5 nM)
Protocol: The ROS measurements were initiated by adding 10 μl of PMA (6.5 nM) at room temperature. Chemiluminescence images 410, 420 were captured with a 5 minute acquisition time using a Kodak In Vivo FX Pro system (f/stop, 2.5; no optical filter, 4×4 binning).

[2] = system: isolated neutrophils (PMNs); experiment: detection of ROS generated by isolated PMA-activated neutrophils with nanoprobes; format: cell-based; conditions: 5 mM Tempol; fluorescence signal remained constant
Protocol: A number of PMN (5×10^4 to 1×10^6) were incubated in 0.25 ml of 0.9% NaCl solution containing 10 mM phosphate buffer (pH 7.4), 6 mM KCl, and 6 mM MgCl2 in the presence of the nanoprobes (10 μl, 0.5 mg/ml). After incubation of the mixture for 3 min at 37° C., the reaction were initiated by adding 6 nM phorbol 12-myristate 13-acetate (PMA). During the incubation, chemiluminescence and fluorescence intensities were recorded continuously for 60 minutes using a microplate reader.
To verify whether the chemiluminescence signals resulted from ROS generated by activated PMNs, similar PMN-mediated chemiluminescence measurements were carried out in the presence or absence of Tempol, a superoxide dismutase mimetic/ROS neutralizer.

Compound	signal enhancement in hypertension-suffering eye vs control eye [1]	chemiluminescence emission with PMA activation (mouse peritoneal PMNs)	chemiluminescence signal intensity relative to luminol (mouse peritoneal PMNs; PMA activation, 5 minute acquisition)	PMN-mediated chemiluminescence intensity in the presence of Tempol [2]
Nc1c(-c2ccccc2)nc(Cl)c2c(=O)[nH][nH]c(=O)c12 [L-012, 8-amino-5-chloro-7-phenylpyridol[3,4-d]pyridazine-1,4 (2H,3H)dione]	ten-fold	emitted chemiluminescence	approximately 1000 fold	
CC1(C)CC(O)CC(C)(C)N1[O] [Tempol]				substantially reduced
1,4-phthalazinedione, 5-amino-2,3-dihydro [luminol]		emitted chemiluminescence		

Source: patent US20160106868A1, “OXYGEN FREE RADICAL DETECTION” (Progenitec Inc., priority 2014, published 2016)
